For 21 molecules, inhibition results are on record in US8680159B2, “Bradykinin 1 receptor modulating compounds” (Gruenenthal GmbH, priority 2010, dated 2014).

Each structure is given as a SMILES string.

A word on the inhibition: it is the relative decrease from the control value, in per cent.

Assay [1] concerns the target T1, human B1R receptor (CHO K1 cells stably transfected with the human B1R gene) (Homo sapiens, UniProt P46663).
T1 construct: expressed in transfected cells; host or cells: CHO K1 cells (Chinese hamster ovary), stably transfected
T1 sequence (P46663 1-353): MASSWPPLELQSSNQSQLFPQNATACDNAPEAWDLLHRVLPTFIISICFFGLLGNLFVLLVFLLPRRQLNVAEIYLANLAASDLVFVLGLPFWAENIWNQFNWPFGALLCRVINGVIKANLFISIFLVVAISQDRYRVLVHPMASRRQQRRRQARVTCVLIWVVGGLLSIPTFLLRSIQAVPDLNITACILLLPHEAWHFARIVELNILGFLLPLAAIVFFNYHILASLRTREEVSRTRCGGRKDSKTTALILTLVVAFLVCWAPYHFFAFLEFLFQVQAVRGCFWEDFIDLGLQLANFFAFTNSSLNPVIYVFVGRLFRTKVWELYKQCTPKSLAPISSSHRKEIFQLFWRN
As to the kind of experiment: Functional study on the bradykinin receptor 1 (B1R), Ca2+ fluorescence (Fluo-4) FLIPR/Novostar assay, hB1R cells. The format is cell-based. The following applies: CHO-K1, read-out: % inhibition (human B1R) at 10 μM. Summed up:
(§1)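 Ca2+ influx (Fluo-4, peak fluorescence, λex 488/λem 540 nm) was measured in CHO K1 lines expressing rat or human B1R. After a 10 μM test-compound pre-addition scoring % activation, cells received EC80 agonist: Des-Arg9-bradykinin for rat, Lys-Des-Arg9-bradykinin for human. Antagonism was expressed as % of maximum inhibition, with IC50 from varied concentrations.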

Assay [2] addresses T2, B1R receptor of the rat (CHO K1 cells stably transfected with the B1R gene of the rat) (Rattus norvegicus, UniProt P97583).
T2 construct: expressed in transfected cells; host or cells: CHO K1 cells (Chinese hamster ovary), stably transfected
T2 sequence (P97583 1-337): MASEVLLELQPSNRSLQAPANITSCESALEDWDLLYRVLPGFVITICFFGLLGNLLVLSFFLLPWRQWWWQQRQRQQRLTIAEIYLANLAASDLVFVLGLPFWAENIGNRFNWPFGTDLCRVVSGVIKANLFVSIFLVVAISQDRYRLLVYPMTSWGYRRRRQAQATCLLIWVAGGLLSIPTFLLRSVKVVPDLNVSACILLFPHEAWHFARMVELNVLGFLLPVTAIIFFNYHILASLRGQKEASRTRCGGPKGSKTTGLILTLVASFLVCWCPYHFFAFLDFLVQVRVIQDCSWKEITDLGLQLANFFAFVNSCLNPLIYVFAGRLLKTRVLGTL
As to the kind of experiment: Functional study on the bradykinin receptor 1 (B1R), Ca2+ fluorescence (Fluo-4) FLIPR/Novostar assay, rB1R cells. The assay is classed as cell-based. Conditions: CHO-K1, 10 μM, read-out: % inhibition (rat B1R) at 10 μM. The method in brief: as §1

For the molecule `CN(C(=O)c1ccc2c(c1)CC[C@H]2N1Cc2cccc(Cl)c2C1=O)C1CCN(Cc2ccncc2)CC1` [Example H-27, (1R)-1-(4-Chloro-3-oxo-1,2-dihydro-isoindol-2-yl)-N-methyl-N-[1-(pyridin-4-yl-methyl)-piperidin-4-yl]-2,3-dihydro-1H-indene-5-carboxylic acid amide], the inhibition at 10 µM amounted to 74% in assay [1] and 11% in assay [2].
Regarding `CC(C)CC(=O)N[C@@H]1CCc2ccc(C(=O)N(C)C3CCN(c4ccncc4)CC3)cc21` [Example H-28, (3R)-N-Methyl-3-(3-methyl-butanoylamino)-N-(1-pyridin-4-yl-piperidin-4-yl)-2,3-dihydro-1H-indene-5-carboxylic acid amide], the inhibition at 10 µM in assay [1] and in assay [2] was 100% each time.
`CN(C(=O)c1ccc2c(c1)[C@H](NC(=O)c1ccccc1F)CC2)C1CCN(c2ccncc2)CC1` [Example H-29, (3R)-3-[(2-Fluoro-benzoyl)amino]-N-methyl-N-(1-pyridin-4-yl-piperidin-4-yl)-2,3-dihydro-1H-indene-5-carboxylic acid amide]: the values for the inhibition at 10 µM in assay [1] and in assay [2] were 99% and 100%, respectively.
Take `CN(C(=O)c1ccc2c(c1)[C@H](NC(=O)c1ccccc1C(F)(F)F)CC2)C1CCN(c2ccncc2)CC1` [Example H-30, (3R)-N-Methyl-N-(1-pyridin-4-yl-piperidin-4-yl)-3-[[2-(trifluoromethyl)-benzoyl]amino]-2,3-dihydro-1H-indene-5-carboxylic acid amide]: the inhibition at 10 µM is 100% in assay [1] and 99% in assay [2].
As for `CN(C(=O)c1ccc2c(c1)[C@H](NC(=O)c1cncnc1)CC2)C1CCN(c2ccncc2)CC1` [Example H-31, N-[(1R)-6-[Methyl-(1-pyridin-4-yl-piperidin-4yl)carbamoyl]-2,3-dihydro-1H-inden-1-yl]-pyrimidine-5-carboxylic acid amide], the inhibition at 10 µM in assay [1] is 100%; in assay [2], 70%.
In the same order, the values of `CN(C(=O)c1ccc2c(c1)[C@H](NC(=O)c1c(F)cccc1Cl)CC2)C1CCN(c2ccncc2)CC1` [Example H-32, (3R)-3-[(2-Chloro-6-fluoro-benzoyl)amino]-N-methyl-N-(1-pyridin-4-yl-piperidin-4-yl)-2,3-dihydro-1H-indene-5-carboxylic acid amide] are 100% and 101%.
In the same order, the values of `CN(C(=O)c1ccc2c(c1)[C@H](NS(=O)(=O)c1ccccc1Cl)CC2)C1CCN(c2ccncc2)CC1` [Example H-33, (3R)-3-[[(2-Chlorophenyl)sulfonyl]amino]-N-methyl-N-(1-pyridin-4-yl-piperidin-4-yl)-2,3-dihydro-1H-indene-5-carboxylic acid amide] are 100% and 101%.
Consider `CC(C)CC(=O)N[C@@H]1CCc2cc(C(=O)N(C)C3CCN(c4ccncc4)CC3)ccc21` [Example H-34, (1R)-N-Methyl-1-(3-methyl-butanoylamino)-N-(1-pyridin-4-yl-piperidin-4-yl)-2,3-dihydro-1H-indene-5-carboxylic acid amide], for which the figures for the inhibition at 10 µM in assay [1] and in assay [2] were 64% and 7%, respectively.
For `CN(C(=O)c1ccc2c(c1)[C@H](NC(=O)Cc1ccccc1Cl)CC2)C1CCN(c2ccncc2)CC1` [Example H-35, (3R)-3-[[2-(2-Chlorophenyl)-acetyl]amino]-N-methyl-N-(1-pyridin-4-yl-piperidin-4-yl)-2,3-dihydro-1H-indene-5-carboxylic acid amide] the same measures were 100% and 105%.
For `CN(C(=O)c1ccc2c(c1)[C@H](NC(=O)c1cnccc1C(F)(F)F)CC2)C1CCN(c2ccncc2)CC1` [Example H-36, N-[(1R)-6-[Methyl-(1-pyridin-4-yl-piperidin-4-yl)-carbamoyl]-2,3-dihydro-1H-inden-1-yl]-4-(trifluoromethyl)-pyridine-3-carboxylic acid amide] the same measures were 100% and 105%.
For `CN(C(=O)c1ccc2c(c1)[C@H](NC(=O)c1cccnc1C(F)(F)F)CC2)C1CCN(c2ccncc2)CC1` [Example H-37, N-[(1R)-6-[Methyl-(1-pyridin-4-yl-piperidin-4-yl)-carbamoyl]-2,3-dihydro-1H-inden-1-yl]-2-(trifluoromethyl)-pyridine-3-carboxylic acid amide] the same measures were 100% and 107%.
Regarding `O=C(N[C@@H]1CCc2ccc(C(=O)N(C3CC3)C3CCN(c4ccncc4)CC3)cc21)c1ccccc1Cl` [Example H-38, (3R)-3-[(2-Chloro-benzoyl)amino]-N-cyclopropyl-N-(1-pyridin-4-yl-piperidin-4-yl)-2,3-dihydro-1H-indene-5-carboxylic acid amide], the inhibition at 10 µM in assay [1] was determined as 100%; in assay [2], 103%.
In the same order, the values of `CN(C(=O)c1ccc2c(c1)[C@H](NC(=O)c1ccccc1Cl)CC2)C1CCN(c2ccncc2)C1` (stereo partly drawn) [Example H-39, (3R)-3-[(2-Chloro-benzoyl)amino]-N-methyl-N-(1-pyridin-4-yl-pyrrolidin-3-yl)-2,3-dihydro-1H-indene-5-carboxylic acid amide] are 100% and 100%.
In the same order, the values of `CN1CCC(N2CCC(N(C)C(=O)c3ccc4c(c3)[C@H](NC(=O)c3ccccc3Cl)CC4)CC2)CC1` [Example H-40, (3R)-3-[(2-Chloro-benzoyl)amino]-N-methyl-N-[1-(1-methyl-piperidin-4-yl)-piperidin-4-yl]-2,3-dihydro-1H-indene-5-carboxylic acid amide] are 52% and 73%.
For `COc1ncccc1C(=O)N[C@@H]1CCc2ccc(C(=O)N(C)C3CCN(c4ccncc4)CC3)cc21` [Example H-41, 2-Methoxy-N-[(1R)-6-[methyl-(1-pyridin-yl-piperidin-4yl)-carbamoyl]-2,3-dihydro-1H-inden-1-yl]-pyridine-3-carboxylic acid amide] the same measures were 100% and 98%.
In the case of `CN1CCC(N2CCC(NC(=O)c3ccc4c(c3)CC[C@H]4N3Cc4cccc(Cl)c4C3=O)CC2)CC1` [Example H-42, (1R)-1-(4-Chloro-3-oxo-1,2-dihydro-isoindol-2-yl)-N-[1-(1-methyl-piperidin-4-yl)-piperidin-4-yl]-2,3-dihydro-1H-indene-5-carboxylic acid amide], the inhibition at 10 µM was 65% in assay [1] and 18% in assay [2].
For `CN(C(=O)c1ccc2c(c1)CC[C@H]2N1Cc2cccc(Cl)c2C1=O)C1CCN(CCc2ccncc2)CC1` [Example H-43, (1R)-1-(4-Chloro-3-oxo-1,2-dihydro-isoindol-2-yl)-N-methyl-N-[1-(2-pyridin-4-yl-ethyl)-piperidin-4-yl]-2,3-dihydro-1H-Indene-5-carboxylic acid amide] the same measures were 22% and 51%.
For `CN(C(=O)c1ccc2c(c1)OCC[C@H]2NC(=O)c1ccccc1Cl)C1CCN(c2ccncc2)CC1` [Example H-44, (4R)-4-[(2-Chloro-benzoyl)amino]-N-methyl-N-(1-pyridin-4-yl-piperidin-4-yl)-3,4-dihydro-2H-chromene-7-carboxylic acid amide] the same measures were 94% and 94%.
In the same order, the values of `CN(C(=O)c1ccc2c(c1)OCC[C@H]2N1Cc2cccc(Cl)c2C1=O)C1CCN(c2ccncc2)CC1` [Example H-45, (4R)-4-(4-Chloro-3-oxo-1,2-dihydro-isoindol-2-yl)-N-methyl-N-(1-pyridin-4-yl-piperidin-4-yl)-3,4-dihydro-2H-chromene-7-carboxylic acid amide] are 98% and 56%.
As to `CN(C(=O)c1ccc2c(c1)[C@H](NC(=O)C1(c3ccccc3F)CC1)CC2)C1CCN(c2ccncc2)CC1` [Example H-46, (3R)-3-[[1-(2-Fluorophenyl)-cyclopropanecarbonyl]amino]-N-methyl-N-(1-pyridin-4-yl-piperidin-4-yl)-2,3-dihydro-1H-indene-5-carboxylic acid amide], the inhibition at 10 µM in assay [1] came out at 100%; in assay [2], 103%.
For `CN(C(=O)c1ccc2c(c1)[C@H](NC(=O)C1(c3ccccc3F)CCCC1)CC2)C1CCN(c2ccncc2)CC1` [Example H-47, (3R)-3-[[1-(2-Fluorophenyl)-cyclopentanecarbonyl]amino]-N-methyl-N-(1-pyridin-4-yl-piperidin-4-yl)-2,3-dihydro-1H-indene-5-carboxylic acid amide] the same measures were 100% and 104%.
